Earlier results, collected in patent US11628197B2, “Methods and compounds for treating effects of COVID-19 disease” (priority 2020, dated 2023).

Legend:
COVID-19 disease = conditions: US Veterans Administration hospitals, France, China and Brazil
COVID-19 = conditions: study of 243 subjects

Molecule	Therapeutic effects after clinical testing (COVID-19 disease)	Efficacy for preventing intubation or death (COVID-19)
CCN(CC)CCCC(C)Nc1ccnc2cc(Cl)ccc12 (stereo not drawn) [chloroquine]	failed to produce desired therapeutic effects	–
CCN(CCO)CCCC(C)Nc1ccnc2cc(Cl)ccc12 (stereo not drawn) [hydroxycholoroquine]	failed to produce desired therapeutic effects	–
Tocilizumab: humanized monoclonal antibody targeting IL-6 receptors	–	failed to show efficacy
